Measurements published in patent US7964594B1, “Amino oxazine derivatives” (Hoffmann-La Roche Inc., priority 2009, dated 2011).
pIC50: −log10 of the molar value.

target: T1, BACE2 (Rattus norvegicus, UniProt Q6IE75); assay: Assay for BACE inhibition by measuring cellular TMEM27 cleavage (INS-TMEM27 cells, ELISA of shed TMEM27); assay type: cell-based; settings: inhibition of human TMEM27 cleavage by endogenous cellular BACE2 in Ins1e rat cell line; ELISA of culture medium
T1 construct: endogenous cellular BACE2 in the Ins1e rat cell line; endogenous in cells; host or cells: INS-TMEM27 (INS1e-derived rat insulinoma cell line with doxycycline-inducible full-length hTMEM27)
T1 sequence (Q6IE75 63-514): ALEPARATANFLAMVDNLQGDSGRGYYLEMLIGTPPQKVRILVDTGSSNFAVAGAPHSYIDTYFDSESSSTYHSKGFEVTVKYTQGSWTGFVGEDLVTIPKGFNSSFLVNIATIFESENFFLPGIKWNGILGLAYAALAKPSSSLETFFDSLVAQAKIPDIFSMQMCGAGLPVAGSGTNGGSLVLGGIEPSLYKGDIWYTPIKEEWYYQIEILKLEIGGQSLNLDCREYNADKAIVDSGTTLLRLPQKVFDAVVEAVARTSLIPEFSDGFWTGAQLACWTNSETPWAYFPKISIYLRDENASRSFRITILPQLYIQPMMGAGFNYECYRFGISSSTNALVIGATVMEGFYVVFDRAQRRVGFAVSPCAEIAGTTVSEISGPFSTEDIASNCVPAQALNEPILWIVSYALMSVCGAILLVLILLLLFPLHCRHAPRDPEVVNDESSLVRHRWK
Description: Assay for BACE Inhibition by Measuring Cellular TMEM27 Cleavage
The assay uses the principle of inhibition of human TMEM27 cleavage by endogenous cellular BACE2 in the Ins1e rat cell line and shedding from the cell surface into the culture medium, followed by detection in an ELISA assay. Inhibition of BACE2 prevents the cleavage and shedding in a dose-dependent manner.
The stable cell line “INS-TMEM27” represents an INS1e-derived cell line with inducible expression (using the TetOn system) of full-length hTMEM27 in a doxycycline-dependent manner. The cells were cultured throughout the experiment in RPMI1640+Glutamax (Invitrogen) Penicillin/Streptomycin, 10% Fetal bovine serum, […], […], 100 micrograms/ml G418 and 100 microgram/ml hygromycin and were grown in adherent culture at 37° C. in a standard CO2 cell culture incubator.
INS-TMEM27 cells were seeded in 96-well plates. After 2 days in culture, BACE2 inhibitor was added in a range of concentrations as required by the assay and after a further two hours, doxycycline was added to a final concentration of 500 ng/ml. The cells were incubated for a further 46 hours and the supernatant harvested for detection of shed TMEM27.
An ELISA assay (using a pair of mouse anti-human-TMEM27 antibodies, raised against the extracellular domain of TMEM27) was used for detection of TMEM27 in the culture medium. An IC50 for BACE2 inhibition was calculated using the ELISA readout for each inhibitor concentration with standard curve-fitting software XLfit (IDBS) for the Excel spreadsheet program.

Row | SMILES | pIC50
1 | CC1(C(=O)Nc2ccc(F)c([C@]3(C)CCOC(N)=N3)c2)COC1 [Example 62, 3-Methyl-oxetane-3-carboxylic acid [3-((S)-2-amino-4-methyl-5,6-dihydro-4H-[1,3]oxazin-4-yl)-4-fluoro-phenyl]-amide] | 5.04
2 | C[C@]1(c2cc(NC(=O)c3ncccc3Cl)ccc2F)N=C(N)OCC12CC2 [Example 48, (S)—N-(3-(6-Amino-8-methyl-5-oxa-7-azaspiro[2.5]oct-6-en-8-yl)-4-fluorophenyl)-3-chloropicolinamide] | 7.44
3 | CC[C@@]1(c2cc(NC(=O)c3ccc(C)s3)ccc2F)CCOC(N)=N1 [Example 20] | 7.32
4 | C[C@@]1(c2cc(NC(=O)c3ncc(C(F)(F)F)cc3Cl)ccc2F)CCOC(N)=N1 [Example 31, 3-Chloro-5-trifluoromethyl-pyridine-2-carboxylic acid [3-((S)-2-amino-4-methyl-5,6-dihydro-4H-[1,3]oxazin-4-yl)-4-fluoro-phenyl]-amide] | 7.96
5 | C[C@@]1(c2cc(NC(=O)CC(F)(F)F)ccc2F)CCOC(N)=N1 [Example 59, N-[3-((S)-2-Amino-4-methyl-5,6-dihydro-4H-[1,3]oxazin-4-yl)-4-fluoro-phenyl]-3,3,3-trifluoro-propionamide] | 6.08
6 | C[C@]1(c2cc(NC(=O)c3c(F)cccc3F)ccc2F)N=C(N)OCC12CC2 [Example 47, (S)—N-(3-(6-Amino-8-methyl-5-oxa-7-azaspiro[2.5]oct-6-en-8-yl)-4-fluorophenyl)-2,6-difluorobenzamide] | 6.21
7 | Cn1ccc(C(=O)Nc2ccc(F)c([C@]3(C)CCOC(N)=N3)c2)n1 [Example 29] | 8.52
8 | Cc1cc(Cl)cnc1C(=O)Nc1ccc(F)c([C@]2(C)CCOC(N)=N2)c1 [Example 26, 5-Chloro-3-methyl-pyridine-2-carboxylic acid [3-((S)-2-amino-4-methyl-5,6-dihydro-4H-[1,3]oxazin-4-yl)-4-fluoro-phenyl]-amide] | 9.00
9 | Cc1nc(C(=O)Nc2ccc(F)c([C@]3(C)CCOC(N)=N3)c2)cs1 [Example 28] | 8.40
10 | C[C@@]1(c2cc(NC(=O)c3ccc(OC(F)F)cn3)ccc2F)CCOC(N)=N1 [Example 61, 5-Difluoromethoxy-pyridine-2-carboxylic acid [3-((S)-2-amino-4-methyl-5,6-dihydro-4H-[1,3]oxazin-4-yl)-4-fluoro-phenyl]-amide] | 6.32
11 | Cc1cc(Cl)cnc1C(=O)Nc1ccc(F)c([C@@]2(C)N=C(N)OCC23CC3)c1 [Example 38, 5-Chloro-3-methyl-pyridine-2-carboxylic acid [3-((S)-6-amino-8-methyl-5-oxa-7-aza-Spiro[2.5]oct-6-en-8-yl)-4-fluoro-phenyl]amide] | 8.29
12 | C[C@@]1(c2cc(NC(=O)c3ncc(F)cc3Cl)ccc2F)CCOC(N)=N1 [Example 35] | 7.96
13 | COc1ccc(C(=O)Nc2ccc(F)c([C@@]3(C)N=C(N)OCC34CC4)c2)nc1 [Example 39] | 7.04
14 | Cc1ccc(C(=O)Nc2ccc(F)c([C@]3(C)CCOC(N)=N3)c2)s1 [Example 17, 5-Methyl-thiophene-2-carboxylic acid [3-((S)-2-amino-4-methyl-5,6-dihydro-4H-[1,3]oxazin-4-yl)-4-fluoro-phenyl]-amide] | 7.96
15 | C[C@]1(c2cc(NC(=O)c3ccc(Cl)cn3)ccc2F)N=C(N)OCC12CC2 [Example 36, 5-Chloro-pyridine-2-carboxylic acid [3-((S)-6-amino-8-methyl-5-oxa-7-aza-spiro[2.5]oct-6-en-8-yl)-4-fluoro-phenyl]-amide] | 7.80
16 | CC[C@@]1(c2cc(NC(=O)c3coc(C)n3)ccc2F)CCOC(N)=N1 [Example 24] | 9.00
17 | C[C@@]1(c2cc(NC(=O)c3ccc(F)cn3)ccc2F)CCOC(N)=N1 [Example 3, 5-Fluoro-pyridine-2-carboxylic acid [3-((S)-2-amino-4-methyl-5,6-dihydro-4H-[1,3]oxazin-4-yl)-4-fluoro-phenyl]-amide] | 8.22
18 | C[C@]1(c2cc(NC(=O)c3ncc(F)cc3Cl)ccc2F)N=C(N)OCC12CC2 [Example 52, (S)—N-(3-(6-Amino-8-methyl-5-oxa-7-azaspiro[2.5]oct-6-en-8-yl)-4-fluorophenyl)-3-chloro-5-fluoropicolinamide] | 7.80
19 | CC[C@@]1(c2cc(NC(=O)c3ccccn3)ccc2F)CCOC(N)=N1 [Example 18, Pyridine-2-carboxylic acid [3-((S)-2-amino-4-ethyl-5,6-dihydro-4H-[1,3]oxazin-4-yl)-4-fluoro-phenyl]-amide] | 7.46
20 | Cc1ccsc1C(=O)Nc1ccc(F)c([C@]2(C)CCOC(N)=N2)c1 [Example 34] | 6.46
21 | C[C@]1(c2cc(NC(=O)c3ccc(C#N)cn3)ccc2F)N=C(N)OCC12CC2 [Example 41, 5-Cyano-pyridine-2-carboxylic acid [3-((S)-6-amino-8-methyl-5-oxa-7-aza-spiro[2.5]oct-6-en-8-yl)-4-fluoro-phenyl]-amide] | 7.28
22 | C[C@@]1(c2cc(NC(=O)c3ccc(C(F)(F)F)cn3)ccc2F)CCOC(N)=N1 [Example 5, 5-Trifluoromethyl-pyridine-2-carboxylic acid [3-((S)-2-amino-4-methyl-5,6-dihydro-4H-[1,3]oxazin-4-yl)-4-fluoro-phenyl]-amide] | 7.05
23 | C[C@@]1(c2cc(NC(=O)c3ccccn3)ccc2F)CCOC(N)=N1 [Example 4, Pyridine-2-carboxylic acid [3-((S)-2-amino-4-methyl-5,6-dihydro-4H-[1,3]oxazin-4-yl)-4-fluoro-phenyl]-amide] | 6.64
24 | C[C@@]1(c2cc(NC(=O)c3ncccc3-c3ccccc3)ccc2F)CCOC(N)=N1 [Example 12, 3-Phenyl-pyridine-2-carboxylic acid [3-((S)-2-amino-4-methyl-5,6-dihydro-4H-[1,3]oxazin-4-yl)-4-fluoro-phenyl]-amide] | 7.47
25 | Cn1cc(Cl)c(C(=O)Nc2ccc(F)c([C@@]3(C)N=C(N)OCC34CC4)c2)n1 [Example 56, (S)—N-(3-(6-Amino-8-methyl-5-oxa-7-azaspiro[2.5]oct-6-en-8-yl)-4-fluorophenyl)-4-chloro-1-methyl-1H-pyrazole-3-carboxamide] | 8.22
26 | C[C@@]1(c2cc(NC(=O)c3ccc(Cl)cn3)ccc2F)CCOC(N)=N1 [Example 2, 5-Chloro-pyridine-2-carboxylic acid [3-((S)-2-amino-4-methyl-5,6-dihydro-4H-[1,3]oxazin-4-yl)-4-fluoro-phenyl]-amide] | 8.00
27 | C[C@@]1(c2cc(NC(=O)c3ccc(F)s3)ccc2F)CCOC(N)=N1 [Example 7, 5-Fluoro-thiophene-2-carboxylic acid [3-((S)-2-amino-4-methyl-5,6-dihydro-4H-[1,3]oxazin-4-yl)-4-fluoro-phenyl]-amide] | 6.47
28 | CC[C@@]1(c2cc(NC(=O)c3ccc(Cl)cn3)ccc2F)CCOC(N)=N1 [Example 19, 5-Chloro-pyridine-2-carboxylic acid [3-((S)-2-amino-4-ethyl-5,6-dihydro-4H-[1,3]oxazin-4-yl)-4-fluoro-phenyl]-amide] | 8.10
29 | CC[C@@]1(c2cc(NC(=O)c3ccc(Cl)s3)ccc2F)CCOC(N)=N1 [Example 21] | 6.62
